From patent publication US8278296B2, “Manipulation of brain CDP-diacylglycerol and uses thereof” (priority 2006, dated 2012) come the findings set out here.

“Also recorded” adds a separate entry of the source.

In one assay the test system is CDP-diacylglycerol. In words: [3H]CDP-diacylglycerol accumulation in rat brain slices. It counts as cell-based. Particulars: for effect on CDP-diacylglycerol accumulation: rat cerebrocortical slices, 0.1-300 μM, other psychotropic compounds.
For assay [1], the system named is phosphoinositide-specific phospholipase C / PI metabolism. In words: Blockade of PI hydrolysis (neomycin, U73122) on antidepressant-induced CDP-DG, PI and IP responses in brain slices. It counts as cell-based, rat.
A further assay concerns rats. In words: Forced swim test. It counts as in vivo, rat. The settings on record: for effect of neomycin pretreatment on immobility-reducing effects of antidepressant drugs: imipramine, fluoxetine, maprotiline.

Method for rats: One group of rats was acclimated once in the swim chamber and subgroups of three animals each were administered indicated doses (corresponding to 0, 3, 10, and 30 mg/kg) of imipramine at 24, 3, and 1 h before behavioral testing (conventional regimen). The other group of rats from the same batch was acclimated twice at 48 and 24 h before the time of testing and subgroups were administered the same doses of imipramine at 3 and 1 h before behavioral testing. Animals in each group were then tested in the forced swim apparatus for 5 min and the immobility times determined. […] Each bar is the mean±SEM (n=6). […] Animals were prepared as in FIG. 14 for the modified regimen. […] Test drugs were administered at indicated doses 3 and 1 h before behavioral testing. […] Immobility response data for set one were analyzed by one-way ANOVA (response by dose) in order to determine if the drug by itself produced significant effects. Data for set two were analyzed by one-way ANOVA (response by group, where group comprised control, neomycin, drug, neomycin+drug), followed by posthoc Tukey tests. […] The forced swim test (FST) was applied with some modifications. Rats were transferred to the testing room between 9:00-10:00 AM and allowed at least an hour before being placed individually into translucent polypropylene cylinders (46 cm tall×25 cm in diameter) containing 27 cm depth of water maintained at 25° C. […] After 15 min in the water, the rats were removed, toweled, and allowed to dry in a warm environment before being returned to their home cage. This acclimation step was repeated after 24 h, with the exposure time reduced from 15 to 5 min. […] During the second acclimation exposure, the duration of immobility was recorded for each animal. […] To adjudge that a rat had become immobile, the animal had to float passively in the water in a slightly hunched, but upright position, making only minimal movements necessary to keep its head above the water (65-66). On the third day when animals were to undergo experimental assessment, saline or the indicated antidepressant agents were administered i.p. at 3 h and at 1 h before behavioral testing. The drugs were dissolved in distilled-deionized water and diluted in saline. Control subjects received 0.9% saline. […] Data were analyzed by one-way analysis of variance (ANOVA).

For the compound `N[C@@H]1C[C@H]1c1ccccc1` (racemic) [tranylcypromine], the “effect on CDP-DG accumulation” value in the assay with CDP-diacylglycerol (frontal cortex slices, MAOIs) was “statistically significant but modest effects”. Turning to `[Cl-].[Li+]` [LiCl, lithium chloride], in the assay with CDP-diacylglycerol (5 mM LiCl present or absent, fluoxetine or imipramine, frontal cortex or hippocampus, 60 min), the “effect on antidepressant drug-induced [3H]CDP-diacylglycerol production” value is “did not significantly enhance or inhibit; also recorded: did not significantly alter”. With `COc1ccc2c(c1)CC[C@@H]1[C@@H]2CC[C@]2(C)[C@@H](NCCCCCCN3C(=O)C=CC3=O)CC[C@@H]12` [U73122], the “inhibition of antidepressant-stimulated IP accumulation” value in assay [1] (100 μM fluoxetine or 300 μM imipramine, paroxetine, maprotiline, nomifensine, hippocampal or cortical slices) is “completely blocked”. In addition, the “inhibition of antidepressant drug effects on CDP-DG production” value in assay [1] (0.1 to 10 μM U73122, cortical or hippocampal slices) is given as “significantly reduced, but was unable to completely block; also recorded: only partially reduced”. Besides, in assay [1] (U73122 alone), the “effect of inhibitor by itself on basal CDP-DG production” value is recorded as “did not significantly alter; also recorded: no significant effect” and the “effect of inhibitor by itself on basal IP accumulation” value is reported as “did not significantly alter; also recorded: no significant effect”. Further, the “inhibition of SKF38393-induced IP accumulation” value in assay [1] (brain slices) was “blocked”. With `COc1ccc2c(c1)CC[C@@H]1[C@@H]2CC[C@]2(C)[C@@H](NCCCCCCN3C(=O)CCC3=O)CC[C@@H]12` [U73123], the “effect on CDP-DG or IP responses” value in assay [1] (inactive analog control, data not shown) is on record as “without effect”. Take `CN1[C@@H]2CC[C@H]1C[C@@H](OC(c1ccccc1)c1ccccc1)C2` [benztropine]: the “effect on CDP-diacylglycerol accumulation” value with CDP-diacylglycerol is on record as “No significant effects or concentration-related effects”. Turning to `CN(C)CCCN1c2ccccc2Sc2ccc(Cl)cc21` [chloropromazine], in the assay with CDP-diacylglycerol, the “effect on CDP-diacylglycerol accumulation” value is given as “No significant effects or concentration-related effects”. Regarding `CN1C(=O)CN=C(c2ccccc2)c2cc(Cl)ccc21` [diazepam], in the assay on CDP-diacylglycerol, the “effect on CDP-diacylglycerol accumulation” value is reported as “No significant effects or concentration-related effects”.

For `OCCN1CCN(CC/C=C2/c3ccccc3Sc3ccc(C(F)(F)F)cc32)CC1` [flupenthioxol], the “effect on CDP-diacylglycerol accumulation” value with CDP-diacylglycerol is recorded as “No significant effects or concentration-related effects”.

Take `O=C(CCCN1CCC(O)(c2ccc(Cl)cc2)CC1)c1ccc(F)cc1` [haloperidol]: the “effect on CDP-diacylglycerol accumulation” value in the assay on CDP-diacylglycerol is recorded as “No significant effects or concentration-related effects”.

On to `NO` [hydroxylamine], for which, in the assay on CDP-diacylglycerol, the “effect on CDP-diacylglycerol accumulation” value is “No significant effects or concentration-related effects”. In the case of `O=C1CN=C(c2ccccc2)c2cc([N+](=O)[O-])ccc2N1` [nitrazepam], the “effect on CDP-diacylglycerol accumulation” value in the assay on CDP-diacylglycerol is recorded as “No significant effects or concentration-related effects”.

`CN1Cc2c(N)cccc2C(c2ccccc2)C1` (centres unmarked) [nomifensine]: the “effect on [3H]CDP-diacylglycerol accumulation” value in the assay with CDP-diacylglycerol (rat hippocampal, prefrontal cortical and striatal slices, LiCl present, 90 min) was “significantly and dose-dependently enhanced”.

Consider `C#CCN(C)Cc1ccccc1` [pargyline], for which the “effect on CDP-diacylglycerol accumulation” value with CDP-diacylglycerol is listed as “No significant effects or concentration-related effects”. Take `Fc1ccc([C@@H]2CCNC[C@H]2COc2ccc3c(c2)OCO3)cc1` [paroxetine]: in assay [1] (compared with tricyclic agents), the “sensitivity of drug effects to inhibition by U73122” value is on record as “more sensitive”. For `O=C1NC(=O)C(c2ccccc2)(c2ccccc2)N1` [phenytoin], the “effect on CDP-diacylglycerol accumulation” value with CDP-diacylglycerol is “No significant effects or concentration-related effects”. On the same count and under the same terms, the value for `CCN(CC)CCCC(C)Nc1c2ccc(Cl)cc2nc2ccc(OC)cc12` (centres unmarked) [quinacrine] was “No significant effects or concentration-related effects”.

On to `C#CCN(C)[C@H](C)Cc1ccccc1` [selegiline], for which the “effect on CDP-diacylglycerol accumulation” value in the assay on CDP-diacylglycerol is “No significant effects or concentration-related effects”. For the compound `CCN1CCCC1CNC(=O)c1cc(S(N)(=O)=O)ccc1OC` (centres unmarked) [sulpiride], the “effect on CDP-diacylglycerol accumulation” value in the assay on CDP-diacylglycerol was “No significant effects or concentration-related effects”.

In the case of neomycin, in the assay on rats (iv 2 h prior to testing), the “effect of neomycin on SKF38393-induced decrease of immobility times” value is listed as “blocked” and the “effect of neomycin pretreatment on immobility-reducing effects of antidepressant drugs” value is reported as “completely reversed”. In the assay with rats (iv 2 h prior to testing, listed as Neomycin), the “effect of neomycin pretreatment on immobility-reducing effects of antidepressant drugs” value is “abolished”. In the assay on rats (iv tail vein 2 h prior to testing), the “effect of neomycin by itself on basal immobility times” value is listed as “did not significantly alter”.
